According to patent US20260217698A1 (BEYANG THERAPEUTICS CO., LTD., priority 2022, published 2026):

Tests used:
VEGFR1 = molecular target: T1, VEGFR1 (Homo sapiens, UniProt P17948); experiment: Kinase inhibition, Mobility Shift Assay/IMAP, VEGFR1; assay type: biochemical
T1 construct: purchased Invitrogen PR6731B
From the text: (§1) This assay directly monitored the ability of compounds to inhibit kinase phosphorylation by measuring non-phosphorylated and phosphorylated substrates in kinase reactions by using Mobility Shift Assays/IMAP™ analysis.
(§2) Read the conversion ratio data on CaliperEZ Reader II. Convert conversion rates into inhibition ratio data.
(§3) “Min” indicates the readout of the control well without the addition of enzymes; and “Max” indicates the readout of the control well with the addition of DMSO Fit IC50 values with XL Fit excel add-in version […].
(§4) X indicates the log value of compound concentration, and Y indicates the inhibition ratio (% inhibition).

VEGFR3 = molecular target: T2, VEGFR3 (Homo sapiens, UniProt P35916); experiment: Kinase inhibition, Mobility Shift Assay/IMAP, VEGFR3; assay type: biochemical
T2 construct: purchased Invitrogen PV4129
From the text: as §1, §2, §3, §4

VEGFR2 = VEGFR2 (Homo sapiens, UniProt P35968); experiment: Kinase inhibition, Mobility Shift Assay/IMAP, VEGFR2; assay type: biochemical; parameters: purchased Carna 08-191
From the text: as §1, §2, §3, §4

EGFR = molecular target: T3, EGFR (Homo sapiens, UniProt P00533); experiment: Kinase inhibition, Mobility Shift Assay/IMAP, EGFR; assay type: biochemical
T3 construct: purchased Carna 08-115
From the text: as §1, §2, §3, §4

melanin = experiment: Binding capacity of compounds to melanin; assay type: in vitro ADME, cuttlefish (Sepia officinalis); conditions: cuttlefish (Sepia officinalis), melanin suspension (1 mg/mL); 1 mg/mL melanin in PBS pH 7.4, 2 μM compound, 2 h at 37° C.; read-out: Fu % (percentage of free drug)
From the text: Pigmented eye tissues contain melanin in intracellular melanosomes. Drugs bind to melanin to varying degrees, ranging from non-binding to extensive binding. Therefore, melanin binding is an important feature that affects drug delivery and biodistribution in the eye. The binding capacity of the compound to the melanin must be considered in the development of ophthalmic drugs.
Melanin was derived from the melanin of cuttlefish (Sepia officinalis) and was commercially available from Sigma Aldrich (St Louis, MO).
First, prepare 1 mg/mL melanin suspension with PBS (pH 7.4). As a washing step for the matrix, centrifuge the suspended particles for 5 min at 3000 rpm. Resuspend the resulting particles in a fresh PBS buffer, heat to 37° C. over continuous shaking and incubate it for 1 h. Accurately pipette 2 μL of the test stock solution (0.1 mM) into 98 μL of melanin suspension (1 mg/mL) to achieve a final incubation concentration of 2 μM. Similarly, accurately pipette 2 μL of the stock solution (0.1 mM) to 98 μL of PBS buffer (containing 0.1% BSA) as a blank control sample. Incubate the samples in a shaker (80-90 rpm) for 2 h at 37° C. Then, centrifuge the samples at room temperature. Pipette 50 μL of the supernatant and add 50 μL of precipitant (containing an internal standard). After protein precipitation of all the above samples, centrifuge the samples to collect the supernatants, dilute the supernatants with water (if necessary) and inject them for analysis. At the same time, measure the positive controls, including the high-binding compounds Sunitinib and chloroquine and the low-binding compound celecoxib. Establish an LC-MS/MS method for determining compound concentrations, and calibrate the peak area ratio of analyte/internal standard (Analyte/AIS) in the measured sample by the dilution factor to take it as an alternative concentration for the sample for data processing. The binding rate (Fb) of a compound in melanin was calculated as: […]
Ctest was the concentration of the compound in the melanin-incubated sample or the peak area ratio of the test compound to the internal standard. Ccontrol was the concentration of the compound in the blank control sample or the peak area ratio of the test compound to the internal standard. […]

TIE2 = molecular target: T4, TIE2 (Homo sapiens, UniProt Q02763); experiment: Kinase inhibition, Mobility Shift Assay/IMAP, TIE2; assay type: biochemical
T4 construct: purchased BPS 40270
From the text: as §1, §2, §3, §4

T4 sequence (Q02763 23-1124): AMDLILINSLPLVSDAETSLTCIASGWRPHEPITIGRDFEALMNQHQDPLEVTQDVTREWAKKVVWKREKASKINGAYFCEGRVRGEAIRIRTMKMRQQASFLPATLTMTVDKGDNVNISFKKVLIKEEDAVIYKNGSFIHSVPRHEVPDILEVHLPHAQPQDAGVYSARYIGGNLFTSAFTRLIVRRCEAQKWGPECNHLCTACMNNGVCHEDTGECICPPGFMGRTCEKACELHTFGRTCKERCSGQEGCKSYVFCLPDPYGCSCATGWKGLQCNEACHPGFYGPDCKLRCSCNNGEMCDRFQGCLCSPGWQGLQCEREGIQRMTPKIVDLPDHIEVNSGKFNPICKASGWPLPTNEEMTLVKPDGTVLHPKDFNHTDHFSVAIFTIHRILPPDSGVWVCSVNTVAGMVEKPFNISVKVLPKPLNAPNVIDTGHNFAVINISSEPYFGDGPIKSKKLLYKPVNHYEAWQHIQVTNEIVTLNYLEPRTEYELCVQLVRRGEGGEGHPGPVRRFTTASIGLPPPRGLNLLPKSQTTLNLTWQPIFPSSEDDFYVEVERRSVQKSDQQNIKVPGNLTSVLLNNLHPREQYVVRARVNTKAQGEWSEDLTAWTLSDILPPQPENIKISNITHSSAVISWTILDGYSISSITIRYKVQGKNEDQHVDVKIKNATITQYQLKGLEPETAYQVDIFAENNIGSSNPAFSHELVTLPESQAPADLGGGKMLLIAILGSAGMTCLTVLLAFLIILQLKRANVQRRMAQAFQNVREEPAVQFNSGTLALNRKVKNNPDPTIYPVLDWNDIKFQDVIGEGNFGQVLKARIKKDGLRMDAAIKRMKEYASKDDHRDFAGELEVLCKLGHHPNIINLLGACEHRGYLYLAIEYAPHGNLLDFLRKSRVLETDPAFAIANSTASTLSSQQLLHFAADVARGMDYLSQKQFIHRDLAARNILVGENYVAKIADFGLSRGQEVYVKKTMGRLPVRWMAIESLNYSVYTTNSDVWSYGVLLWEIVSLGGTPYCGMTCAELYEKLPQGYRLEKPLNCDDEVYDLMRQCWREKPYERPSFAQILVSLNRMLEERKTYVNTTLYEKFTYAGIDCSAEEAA
T3 sequence (P00533 669-1210 limits assumed): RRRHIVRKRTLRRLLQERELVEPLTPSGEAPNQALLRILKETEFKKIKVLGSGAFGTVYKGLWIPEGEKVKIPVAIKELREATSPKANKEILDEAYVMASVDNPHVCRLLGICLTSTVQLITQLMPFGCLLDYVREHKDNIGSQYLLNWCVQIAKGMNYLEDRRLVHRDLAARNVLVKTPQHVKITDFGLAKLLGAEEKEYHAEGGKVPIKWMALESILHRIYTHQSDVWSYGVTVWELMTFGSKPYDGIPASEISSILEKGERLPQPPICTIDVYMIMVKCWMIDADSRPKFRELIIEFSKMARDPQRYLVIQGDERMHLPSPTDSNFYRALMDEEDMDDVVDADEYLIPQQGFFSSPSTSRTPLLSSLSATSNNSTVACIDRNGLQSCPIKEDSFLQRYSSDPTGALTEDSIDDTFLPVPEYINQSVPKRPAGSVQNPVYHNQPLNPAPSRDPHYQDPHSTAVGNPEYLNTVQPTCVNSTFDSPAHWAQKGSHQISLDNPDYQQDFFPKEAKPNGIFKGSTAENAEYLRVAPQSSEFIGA
Sequence of VEGFR2 (P35968 790-1356 limits assumed): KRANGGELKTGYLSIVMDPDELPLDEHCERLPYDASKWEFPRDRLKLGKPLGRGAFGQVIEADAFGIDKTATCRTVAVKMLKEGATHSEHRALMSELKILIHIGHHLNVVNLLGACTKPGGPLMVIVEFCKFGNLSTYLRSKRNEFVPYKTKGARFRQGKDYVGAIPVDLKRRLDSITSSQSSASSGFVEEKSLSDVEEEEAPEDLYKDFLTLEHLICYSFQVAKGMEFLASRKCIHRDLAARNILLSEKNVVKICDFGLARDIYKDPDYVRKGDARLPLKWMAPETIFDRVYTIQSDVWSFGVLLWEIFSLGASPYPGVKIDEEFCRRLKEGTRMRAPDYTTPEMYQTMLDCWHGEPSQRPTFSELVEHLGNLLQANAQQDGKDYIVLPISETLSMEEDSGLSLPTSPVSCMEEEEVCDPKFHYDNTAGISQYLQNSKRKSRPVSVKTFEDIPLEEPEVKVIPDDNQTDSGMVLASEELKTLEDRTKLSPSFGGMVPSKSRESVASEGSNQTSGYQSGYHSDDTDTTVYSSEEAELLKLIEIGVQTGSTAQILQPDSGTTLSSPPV
T2 sequence (P35916 25-1363): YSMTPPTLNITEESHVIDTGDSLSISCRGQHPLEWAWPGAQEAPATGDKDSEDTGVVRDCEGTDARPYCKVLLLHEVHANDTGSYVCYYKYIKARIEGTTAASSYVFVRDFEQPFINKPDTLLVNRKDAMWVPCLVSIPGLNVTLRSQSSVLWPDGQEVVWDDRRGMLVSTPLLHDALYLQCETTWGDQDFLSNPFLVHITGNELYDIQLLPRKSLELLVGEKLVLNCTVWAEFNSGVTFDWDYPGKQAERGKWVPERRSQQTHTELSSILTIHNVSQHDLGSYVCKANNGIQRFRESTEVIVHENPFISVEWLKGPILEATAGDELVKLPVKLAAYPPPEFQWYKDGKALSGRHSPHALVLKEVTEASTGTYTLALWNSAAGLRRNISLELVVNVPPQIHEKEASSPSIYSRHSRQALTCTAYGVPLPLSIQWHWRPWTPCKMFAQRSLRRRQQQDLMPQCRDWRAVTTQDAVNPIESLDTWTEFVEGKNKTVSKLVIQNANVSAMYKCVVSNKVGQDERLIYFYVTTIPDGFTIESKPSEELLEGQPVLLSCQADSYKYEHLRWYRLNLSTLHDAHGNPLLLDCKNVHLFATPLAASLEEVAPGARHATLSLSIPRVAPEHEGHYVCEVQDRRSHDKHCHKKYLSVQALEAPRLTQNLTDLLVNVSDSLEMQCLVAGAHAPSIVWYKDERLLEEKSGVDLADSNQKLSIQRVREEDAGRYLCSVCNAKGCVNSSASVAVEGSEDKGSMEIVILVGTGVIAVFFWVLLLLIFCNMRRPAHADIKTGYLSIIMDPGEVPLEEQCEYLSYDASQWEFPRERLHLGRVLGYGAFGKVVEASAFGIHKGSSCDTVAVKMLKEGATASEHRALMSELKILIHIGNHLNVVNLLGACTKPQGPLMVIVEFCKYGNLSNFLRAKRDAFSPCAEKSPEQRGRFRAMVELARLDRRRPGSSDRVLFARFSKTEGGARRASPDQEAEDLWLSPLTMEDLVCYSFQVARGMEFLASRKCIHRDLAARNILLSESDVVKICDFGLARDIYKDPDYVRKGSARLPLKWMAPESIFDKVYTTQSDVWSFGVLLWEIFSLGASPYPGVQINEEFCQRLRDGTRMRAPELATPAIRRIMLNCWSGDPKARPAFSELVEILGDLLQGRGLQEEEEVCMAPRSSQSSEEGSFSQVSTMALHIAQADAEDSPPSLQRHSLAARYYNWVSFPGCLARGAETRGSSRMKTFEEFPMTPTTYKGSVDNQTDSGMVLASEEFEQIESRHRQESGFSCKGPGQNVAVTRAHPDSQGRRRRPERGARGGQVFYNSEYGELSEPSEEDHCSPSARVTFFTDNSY
T1 sequence (P17948 27-1338): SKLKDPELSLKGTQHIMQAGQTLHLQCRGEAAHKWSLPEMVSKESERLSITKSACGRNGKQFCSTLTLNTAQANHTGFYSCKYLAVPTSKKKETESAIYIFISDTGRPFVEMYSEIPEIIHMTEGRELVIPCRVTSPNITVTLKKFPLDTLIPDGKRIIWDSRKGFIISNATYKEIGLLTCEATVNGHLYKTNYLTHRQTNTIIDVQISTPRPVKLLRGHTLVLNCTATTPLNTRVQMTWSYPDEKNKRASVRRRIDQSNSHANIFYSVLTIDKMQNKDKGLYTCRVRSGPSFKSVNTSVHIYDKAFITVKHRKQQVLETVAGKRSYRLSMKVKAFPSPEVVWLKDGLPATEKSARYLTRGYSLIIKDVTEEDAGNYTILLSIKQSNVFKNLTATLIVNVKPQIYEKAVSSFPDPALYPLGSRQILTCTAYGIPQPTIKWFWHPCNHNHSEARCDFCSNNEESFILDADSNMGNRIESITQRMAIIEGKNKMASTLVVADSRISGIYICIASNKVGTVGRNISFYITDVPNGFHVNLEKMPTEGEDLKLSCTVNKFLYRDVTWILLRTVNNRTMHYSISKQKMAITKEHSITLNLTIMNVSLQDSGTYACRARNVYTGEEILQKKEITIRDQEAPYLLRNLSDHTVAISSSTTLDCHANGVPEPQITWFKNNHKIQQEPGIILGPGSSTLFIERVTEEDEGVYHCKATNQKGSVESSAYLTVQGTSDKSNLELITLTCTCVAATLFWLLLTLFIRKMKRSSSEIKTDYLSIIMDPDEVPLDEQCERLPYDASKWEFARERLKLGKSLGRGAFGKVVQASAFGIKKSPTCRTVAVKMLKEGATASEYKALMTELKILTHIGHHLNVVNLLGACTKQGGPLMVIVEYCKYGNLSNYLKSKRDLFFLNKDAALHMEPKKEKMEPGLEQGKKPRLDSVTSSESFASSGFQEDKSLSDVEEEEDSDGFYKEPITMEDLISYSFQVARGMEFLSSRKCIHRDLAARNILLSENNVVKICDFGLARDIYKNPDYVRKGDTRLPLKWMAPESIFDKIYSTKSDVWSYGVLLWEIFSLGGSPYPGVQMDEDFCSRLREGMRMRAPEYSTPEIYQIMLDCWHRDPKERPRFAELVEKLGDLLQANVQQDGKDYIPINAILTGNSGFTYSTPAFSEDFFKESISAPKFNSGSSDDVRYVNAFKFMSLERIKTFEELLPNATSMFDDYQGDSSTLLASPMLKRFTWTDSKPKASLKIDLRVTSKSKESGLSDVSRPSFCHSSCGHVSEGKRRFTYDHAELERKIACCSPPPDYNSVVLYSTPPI

| SMILES | IC50 (VEGFR1) [nM] | IC50 (VEGFR3) [nM] | IC50 (VEGFR2) [nM] | IC50 (EGFR) [nM] | fraction unbound at 2 h, 2 μM (melanin) | IC50 (TIE2) [nM] |
| --- | --- | --- | --- | --- | --- | --- |
| CCNC(=O)c1cccc(COc2nsc(NC(=O)NCCCCN3CCCC3)c2C(N)=O)c1 [Compound T058, 3-((3-(ethylcarbamoyl)benzyl)oxy)-5-(3-(4-(pyrrolidin-1-yl)butyl)ureido)isothiazole-4-carboxamide] | 30 |  | 20.9 | > 60000 | 0.0225 |  |
| COc1cc(COc2nsc(NC(=O)NCCCCN3CCC(F)(F)C3)c2C(N)=O)cc(OC)c1 [Compound T063, 5-(3-(4-(3,3-difluoropyrrolidin-1-yl)butyl)ureido)-3-((3,5-dimethoxybenzyl)oxy)isothiazole-4-carboxamide] |  | 39.1 | 63 | > 60000 | 0.0871 | 1000 |
| NC(=O)c1c(OCc2cccc(C(=O)NC3CC3)c2)nsc1NC(=O)NCCN1CCCC1 [Compound T066, 3-((3-(cyclopropylcarbamoyl)benzyl)oxy)-5-(3-(2-(pyrrolidin-1-yl)ethyl)ureido)isothiazole-4-carboxamide] | 37.9 |  | 77.8 | > 60000 |  | 10000 |
| CN1CCC(CCNC(=O)Nc2snc(OCc3ccc4c(c3F)OCC4)c2C(N)=O)CC1 [Compound T075, 3-((7-fluoro-2,3-dihydrobenzofuran-6-yl)methoxy)-5-(3-(2-(1-methylpiperidin-4-yl)ethyl)ureido)isothiazole-4-carboxamide] | 44 | 48.8 | 23 | 24300 | 0.0391 |  |
| COc1ccc(F)c(COc2nsc(NC(=O)NCCCCN3CCCC3)c2C(N)=O)c1 [Compound T092, 3-[(2-fluoro-5-methoxy-phenyl)methoxy]-5-(4-pyrrolidin-1-ylbutylcarbamoylamino)isothiazole-4-carboxamide] |  |  | 17.2 |  | 0.031 | 596 |
| COc1ccc(F)c(COc2nsc(NC(=O)NCCCN3CC[C@H](F)C3)c2C(N)=O)c1F [Compound T120, 3-[(2,6-difluoro-3-methoxy-phenyl)methoxy]-5-[3-[(3S)-3-fluoropyrrolidin-1-yl]propylcarbamoylamino]isothiazole-4-carboxamide] |  |  | 47 | 40700 | 0.0173 | 397 |
| COc1ccc(F)c(COc2nsc(NC(=O)NCCCCN3CCC(F)(F)CC3)c2C(N)=O)c1F [Compound T130, 3-[(2,6-difluoro-3-methoxy-phenyl)methoxy]-5-[4-(4,4-difluoro-1-piperidyl)butylcarbamoylamino]isothiazole-4-carboxamide] |  |  | 41 | 13700 | 0.0709 | 471 |
| COc1ccc(F)c(COc2nsc(NC(=O)NCCCCN3CCOCC3)c2C(N)=O)c1F [Compound T132, 3-[(2,6-difluoro-3-methoxy-phenyl)methoxy]-5-(4-morpholinobutylcarbamoylamino)isothiazole-4-carboxamide] |  |  | 14.7 | 19200 | 0.0363 | 163 |
| CC(C)(C)[Si](C)(C)OCCCNC(=O)Nc1snc(OCc2cc(C(=O)NC3CC3)ccc2F)c1C(N)=O [Compound T169, 5-[3-[tert-butyl(dimethyl)silyl]oxypropylcarbamoylamino]-3-[[5-(cyclopropylcarbamoyl)-2-fluoro-phenyl]methoxy]isothiazole-4-carboxamide] |  |  | 16.4 | > 60000 |  | > 60000 |

Now those with a lower IC50 (VEGFR2), led by results:

| IC50 (VEGFR1) [nM] | IC50 (VEGFR3) [nM] | IC50 (VEGFR2) [nM] | IC50 (EGFR) [nM] | fraction unbound at 2 h, 2 μM (melanin) | IC50 (TIE2) [nM] | SMILES |
| --- | --- | --- | --- | --- | --- | --- |
|  |  | 13.5 | 9710 | 0.0402 | 161 | COc1ccc(F)c(COc2nsc(NC(=O)NCCCCN3CCC(F)CC3)c2C(N)=O)c1F [Compound T125, 3-[(2,6-difluoro-3-methoxy-phenyl)methoxy]-5-[4-(4-fluoro-1-piperidyl)butylcarbamoylamino]isothiazole-4-carboxamide] |
| 26.7 | 23.8 | 12.6 | 43600 | 0.0311 |  | CCN1CCC(CCNC(=O)Nc2snc(OCc3ccc4c(c3)OCC4)c2C(N)=O)CC1 [Compound T076, 3-(2,3-dihydrobenzofuran-6-ylmethoxy)-5-[2-(1-ethyl-4-piperidyl)ethylcarbamoylamino]isothiazole-4-carboxamide] |
|  |  | 9.1 | > 60000 | 0.0481 | 413 | COc1cc(COc2nsc(NC(=O)NCCCCN3CCCC3)c2C(N)=O)c(F)c(OC)c1 [Compound T094, 3-[(2-fluoro-3,5-dimethoxy-phenyl)methoxy]-5-(4-pyrrolidin-1-ylbutylcarbamoylamino)isothiazole-4-carboxamide] |
|  |  | 8.57 | 9140 | 0.0403 | 124 | COc1ccc(F)c(COc2nsc(NC(=O)NCCCN3CCN(C)CC3)c2C(N)=O)c1F [Compound T107, 3-[(2,6-difluoro-3-methoxy-phenyl)methoxy]-5-[3-(4-methylpiperazin-1-yl)propylcarbamoylamino]isothiazole-4-carboxamide] |
| 42.1 | 18.7 | 8.17 |  |  |  | CN(C)CCCn1ncc(Nc2snc(OCc3c(F)cc(Br)cc3F)c2C(N)=O)n1 [Compound T052, 3-((4-bromo-2,6-difluorobenzyl)oxy)-5-((2-(3-(dimethylamino)propyl)-2H-1,2,3-triazol-4-yl)amino)isothiazole-4-carboxamide] |
| 33 | 44 | 7.01 | 52000 | 0.0385 |  | CN1CCN(CCCNC(=O)Nc2snc(OCc3ccc4c(c3)OCC4)c2C(N)=O)CC1 [Compound T077, 3-(2,3-dihydrobenzofuran-6-ylmethoxy)-5-[3-(4-methylpiperazin-1-yl)propylcarbamoylamino]isothiazole-4-carboxamide] |
|  |  | 5.5 | 9890 | 0.0235 | 142 | CN1CC[C@@H](CCNC(=O)Nc2snc(OCc3cc4c(cc3F)CCO4)c2C(N)=O)C1 [Compound T102, 3-[(5-fluoro-2,3-dihydrobenzofuran-6-yl)methoxy]-5-[2-[(3R)-1-methylpyrrolidin-3-yl]ethylcarbamoylamino]isothiazole-4-carboxamide] |
| 6.08 | 16.1 | 3.68 |  |  |  | NC(=O)c1c(OCc2c(F)cc(Br)cc2F)nsc1Nc1cnn(CCN2CCNCC2)c1 [Compound T050, 3-((4-bromo-2,6-difluorobenzyl)oxy)-5-((1-(2-(piperazin-1-yl)ethyl)-1H-pyrazol-4-yl)amino)isothiazole-4-carboxamide] |
|  |  | 1.9 | > 60000 | 0.02 | 97 | COc1cc(OC)c(F)c(COc2nsc(NC(=O)NCCCCN3CC[C@@H](O)C3)c2C(N)=O)c1F [Compound T135, 3-[(2,6-difluoro-3,5-dimethoxy-phenyl)methoxy]-5-[4-[(3R)-3-hydroxypyrrolidin-1-yl]butylcarbamoylamino]isothiazole-4-carboxamide] |
|  |  | 0.72 |  | 0.0271 | 621 | NC(=O)c1c(OCc2cc(C(=O)NC3CC3)ccc2F)nsc1NC(=O)NCCC1CCN(CCF)CC1 [Compound T108, 3-[[5-(cyclopropylcarbamoyl)-2-fluoro-phenyl]methoxy]-5-[2-[1-(2-fluoroethyl)-4-piperidyl]ethylcarbamoylamino]isothiazole-4-carboxamide] |
|  |  | 0.45 | 15600 |  | 1740 | NC(=O)c1c(OCc2cc(C(=O)NC3CC3)ccc2Cl)nsc1NC(=O)NCCCN1CC[C@H](F)C1 [Compound T166, 3-[[2-chloro-5-(cyclopropylcarbamoyl)phenyl]methoxy]-5-[3-[(3S)-3-fluoropyrrolidin-1-yl]propylcarbamoylamino]isothiazole-4-carboxamide] |
